# pIC50: −log10 of the molar value.
# Molecular target: T1, P2X7 receptor (Homo sapiens, UniProt Q99572)
# T1 construct: stably expressing the full length P2X7 receptor; expressed in transfected cells
# T1 sequence (Q99572 1-595): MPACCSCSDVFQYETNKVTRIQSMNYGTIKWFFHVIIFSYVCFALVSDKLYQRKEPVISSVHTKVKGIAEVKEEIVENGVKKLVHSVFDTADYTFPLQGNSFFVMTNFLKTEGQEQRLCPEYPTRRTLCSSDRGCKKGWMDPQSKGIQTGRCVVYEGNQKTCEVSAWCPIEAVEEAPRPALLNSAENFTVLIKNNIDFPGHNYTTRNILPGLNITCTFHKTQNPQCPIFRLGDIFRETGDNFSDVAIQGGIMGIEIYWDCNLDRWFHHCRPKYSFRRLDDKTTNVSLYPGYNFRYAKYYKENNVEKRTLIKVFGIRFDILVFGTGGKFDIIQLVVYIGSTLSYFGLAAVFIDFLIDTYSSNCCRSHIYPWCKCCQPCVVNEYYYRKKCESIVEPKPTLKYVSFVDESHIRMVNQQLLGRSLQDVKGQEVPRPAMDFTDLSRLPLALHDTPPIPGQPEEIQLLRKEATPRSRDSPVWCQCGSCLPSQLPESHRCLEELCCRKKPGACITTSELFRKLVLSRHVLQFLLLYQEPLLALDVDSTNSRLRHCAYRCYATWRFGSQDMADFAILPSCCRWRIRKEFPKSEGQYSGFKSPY
# Test: Ca++ flux assay (FLIPR) in P2X7-HEK-293 cell line stably expressing the full length P2X7 receptor, Bz-ATP activation
# Assay type: cell-based
# Details: P2X7-HEK-293 cells; agonist Bz-ATP; fluorescence as total area over 90 seconds; read-out: P2X7 Ca Flux hu IC50
# Method: The ability of Triazolopyrazinone Compounds to inhibit P2X7 function can be determined in Ca^++ flux assay using a P2X7-HEK-293 cell line stably expressing the full length P2X7 receptor. The assay protocol is as described in Cheewatrakoolpong et al., Biochem. Biophys. Res. Commun. 332:17-27 (2005) with minor modification, and is as summarized hereinafter. Briefly, cells were plated in poly-D-lysine-coated wells, and incubated at 37° C. for 24 hours. Cells were then incubated for 1 hour with a loading buffer which contains a dye sensitive to changes in Ca^++ concentration (lx Calcium Plus no wash dye from Molecular Devices, Sunnyvale, Calif.). The test compounds were added to the wells in the dye loading step. Plates containing the wells were transferred to a Fluorometric Imaging Plate Reader (Molecular Devices, Sunnyvale, Calif.). The cells were activated by the addition of the P2X7 receptor agonist 2′(3) —O-(4-benzoylbenzoyl)adenosine 5′-triphosphate (Bz-ATP from Sigma-Aldrich, St. Louis, Mo.), and the fluorescence was monitored for 90 seconds. The fluorescent signal was determined as the total area over the 90 second run time. Using this protocol, representative Triazolopyrazinone Compounds, compounds 1471 were tested. Tables 3 to 6 show the concentration at which 50% of the maximum response in the Ca^++ was inhibited (IC50) for each of the test compounds.
row,Structure (SMILES),pIC50
1,"CCc1ccccc1CSc1nnc2c(=O)n(-c3cccc(Cl)c3C)ccn12 [Compound 35, 7-(3-chloro-2-methylphenyl)-3-(2-ethylbenzylthio)-[1,2,4]triazolo[4,3-a]pyrazin-8(7H)-one]",6.67
2,"O=c1c2nnc(S(=O)(=O)C(c3ccccc3)c3ccccc3)n2ccn1-c1cccc(C(F)(F)F)c1Cl [Compound 144, 3-(benzhydrylsulfonyl)-7-(2-chloro-3-(trifluoromethyl)phenyl)-[1,2,4]triazolo[4,3-a]pyrazin-8(7H)-one]",6.89
3,"Cc1c(Cl)cccc1-n1ccn2c(SCCc3ccccc3)nnc2c1=O [Compound 112, 7-(3-chloro-2-methylphenyl)-3-(phenethylthio)-[1,2,4]triazolo[4,3-a]pyrazin-8(7H)-one]",6.18
4,"Cc1c(-n2ccn3c(SCc4ccccc4Oc4ccccc4)nnc3c2=O)cccc1C(F)(F)F [Compound 20, 7-(2-methyl-3-(trifluoromethyl)phenyl)-3-(2-phenoxybenzylthio)-[1,2,4]triazolo[4,3-a]pyrazin-8(7H)-one]",6.84
5,"Cc1c(Cl)cccc1-n1ccn2c(SCc3ccccc3[N+](=O)[O-])nnc2c1=O [Compound 53, 7-(3-chloro-2-methylphenyl)-3-(2-nitrobenzylthio)-[1,2,4]triazolo[4,3-a]pyrazin-8(7H)-one]",6.00
6,"Cc1c(-n2ccn3c(SCc4ccccc4-c4ccc(C(F)(F)F)cc4)nnc3c2=O)cccc1C(F)(F)F [Compound 8, 7-(2-methyl-3-(trifluoromethyl)phenyl)-3-((4′-(trifluoromethyl)biphenyl-2-yl)rnethylthio)-[1,2,4]triazolo[4,3-a]pyrazin-8(7H)-one]",6.04
7,"Cc1c(Cl)cccc1-n1ccn2c(SCc3cc(C(F)(F)F)cc(C(F)(F)F)c3)nnc2c1=O [Compound 88, 3-(3,5-bis(trifluoromethyl)benzylthio)-7-(3-chloro-2-methylphenyl)-[1,2,4]triazolo[4,3-a]pyrazin-8(7H)-one]",5.08
8,Cc1cccc(-c2ccccc2CS(=O)(=O)c2nnc3c(=O)n(-c4cccc(C(F)(F)F)c4C)ccn23)c1 [Compound 152],7.29
9,"Cc1c(-n2ccn3c(S(=O)(=O)CC(=O)c4ccccc4)nnc3c2=O)cccc1C(F)(F)F [Compound 163, 7-(2-methyl-3-(trifluoromethyl)phenyl)-3-(2-oxo-2-phenylethylsulfonyl)-[1,2,4]triazolo[4,3-a]pyrazin-8(7H)-one]",5.51
10,"Cc1c(-n2ccn3c(SCc4ccccc4-c4ccccc4)nnc3c2=O)cccc1C(F)(F)F [Compound 49, 3-(biphenyl-2-ylmethylthio)-7-(2-methyl-3-(trifluoromethyl)phenyl)-[1,2,4]triazolo[4,3-a]pyrazin-8(7H)-one]",7.80
11,"Cc1c(-n2ccn3c(SCc4cccc5c4-c4ccccc4C5)nnc3c2=O)cccc1C(F)(F)F [Compound 4, 3-((9H-fluoren-4-yl)methylthio)-7-(2-methyl-3-(trifluoromethyl)phenyl)-[1,2,4]triazolo[4,3-a]pyrazin-8(7H)-one]",6.58
12,"Cc1c(-n2ccn3c(S(=O)(=O)Cc4ccccc4I)nnc3c2=O)cccc1C(F)(F)F [Compound 133, 3-(2-iodobenzylsulfonyl)-7-(2-methyl-3-(trifluoromethyl)phenyl)-[1,2,4]triazolo[4,3-a]pyrazin-8(7H)-one]",7.67
13,"Cc1c(Cl)cccc1-n1ccn2c(SCc3cccc(C(F)(F)F)c3)nnc2c1=O [Compound 89, 7-(3-chloro-2-methylphenyl)-3-(3-(trifluoromethyl)benzylthio)-[1,2,4]triazolo[4,3-a]pyrazin-8(7H)-one]",6.24
14,"Cc1onc(-c2ccccc2)c1CS(=O)(=O)c1nnc2c(=O)n(-c3cccc(C(F)(F)F)c3C)ccn12 [Compound 160, 7-(2-methyl-3-(trifluoromethyl)phenyl)-3-((5-methyl-3-phenylisoxazol-4-yl)methylsulfonyl)-[1,2,4]triazolo[4,3-a]pyrazin-8(7H)-one]",6.55
15,"O=c1c2nnc(SCc3ccccc3)n2ccn1-c1cccc2ccccc12 [Compound 29, 3-(benzylthio)-7-(naphthalen-1-yl)-[1,2,4]-triazolo[4,3-a]pyrazin-8(7H)-one]",5.44
16,"Cc1c(-n2ccn3c(S(=O)(=O)Cc4cccs4)nnc3c2=O)cccc1C(F)(F)F [Compound 122, 7-(2-methyl-3-(trifluoromethyl)phenyl)-3-(thiophen-2-ylmethylsulfonyl)-[1,2,4]triazolo[4,3-a]pyrazin-8(7H)-one]",7.91
17,"O=c1c2nnc(SCc3cccc4ccccc34)n2ccn1-c1cccc(C(F)(F)F)c1Cl [Compound 27, 7-(2-chloro-3-(trifluoromethyl)phenyl)-3-(naphthalen-1-ylmethylthio)-[1,2,4]triazolo[4,3-a]pyrazin-8(7H)-one]",6.78
18,"Cc1c(-n2ccn3c(SCc4ccccc4F)nnc3c2=O)cccc1C(F)(F)F [Compound 56, 3-(2-fluorobenzylthio)-7-(2-methyl-3-(trifluoromethyl)phenyl)-[1,2,4]triazolo[4,3-a]pyrazin-8(7H)-one]",6.78
19,"COc1cc(CSc2nnc3c(=O)n(-c4cccc(Cl)c4C)ccn23)cc(OC)c1 [Compound 79, 7-(3-chloro-2-methylphenyl)-3-(3,5-dimethoxybenzylthio)-[1,2,4]triazolo[4,3-a]pyrazin-8(7H)-one]",5.88
20,"Cc1c(-n2ccn3c(SCc4cc(Cl)cc(Cl)c4)nnc3c2=O)cccc1C(F)(F)F [Compound 69, 3-(3,5-dichlorobenzylthio)-7-(2-methyl-3-(trifluoromethyl)phenyl)-[1,2,4]triazolo[4,3-a]pyrazin-8(7H)-one]",6.73
21,"Cc1c(-n2ccn3c(SC(C)c4ccccc4)nnc3c2=O)cccc1C(F)(F)F (stereo not drawn) [Compound 62, 7-(2-methyl-3-(trifluoromethyl)phenyl)-3-(1-phenylethylthio)-[1,2,4]triazolo[4,3-a]pyrazin-8(7H)-one]",7.24
22,"Cc1c(-n2ccn3c(SCc4ccccc4-c4cccs4)nnc3c2=O)cccc1C(F)(F)F [Compound 23, 7-(2-methyl-3-(trifluoromethyl)phenyl)-3-(2-(thiophen-2-yl)benzylthio)-[1,2,4]triazolo[4,3-a]pyrazin-8(7H)-one]",7.39
23,"Cc1c(Cl)cccc1-n1ccn2c(SCc3cccc(OC(F)(F)F)c3)nnc2c1=O [Compound 85, 7-(3-chloro-2-methylphenyI)-3-(3-(trifluoromethoxy)benzylthio)-[1,2,4]triazolo[4,3-a]pyrazin-8(7H)-one]",6.30
24,"Cc1c(Cl)cccc1-n1ccn2c(S(=O)(=O)Cc3ccc(Cl)cc3)nnc2c1=O [Compound 157, 7-(3-chloro-2-methylphenyl)-3-(4-chlorobenzylsulfonyl)-[1,2,4]triazolo[4,3-a]pyrazin-8(7H)-one]",6.87
25,"Cc1c(Cl)cccc1-n1ccn2c(SCC(=O)c3ccccc3C(F)(F)F)nnc2c1=O [Compound 109, 7-(3-chloro-2-methylphenyl)-3-(2-oxo-2-(2-(trifluoromethyl)phenyl)ethylthio)-[1,2,4]-triazolo[4,3-a]pyrazin-8(7H)-one]",6.35
26,"O=c1c2nnc(SC(c3ccccc3)c3ccccc3)n2ccn1-c1cccc(C(F)(F)F)c1Cl [Compound 25, 3-(benzhydrylthio)-7-(2-chloro-3-(trifluoromethyl)phenyl)-[1,2,4]triazolo[4,3-a]pyrazin-8(7H)-one]",7.38
27,"COc1ccccc1CSc1nnc2c(=O)n(-c3cccc(Cl)c3C)ccn12 [Compound 110, 7-(3-chloro-2-methylphenyl)-3-(2-methoxybenzylthio)-[1,2,4]triazolo[4,3-a]pyrazin-8(7H)-one]",6.26
28,"Cc1c(Cl)cccc1-n1ccn2c(SCc3ccccc3COc3ccccc3)nnc2c1=O [Compound 42, 7-(3-chloro-2-methylphenyl)-3-(2-(phenoxymethyl)benzylthio)-[1,2,4]triazolo[4,3-a]pyrazin-8(7H)-one]",6.77
29,"Cc1c(Cl)cccc1-n1ccn2c(SCc3ccc(Cl)c(Cl)c3)nnc2c1=O [Compound 103, 7-(3-chloro-2-methylphenyl)-3-(3,4-dichlorobenzylthio)-[1,2,4]triazolo[4,3-a]pyrazin-8(7H)-one]",5.88
30,"Cc1c(Cl)cccc1-n1ccn2c(NC(c3ccccc3)c3ccccc3)nnc2c1=O [Compound 167, 3-(benzhydrylamino)-7-(3-chloro-2-methylphenyl)-[1,2,4]triazolo[4,3-a]pyrazin-8(7H)-one]",5.98
